# Experimental data from ChEMBL document CHEMBL5335781, “Discovery of quinazolin-4-one-based non-covalent inhibitors targeting the severe acute respiratory syndrome coronavirus 2 main protease (SARS-CoV-2 Mpro)” (Eur J Med Chem, 2023).
# Calls of active or inactive are those of the source. The calls are words filed in the database; no cut-off is given here.
# What was measured:
# [1] = molecular target: Replicase polyprotein 1ab (Severe acute respiratory syndrome coronavirus 2) (UniProt P0DTD1); conditions: time 30.0 min
# Vero C1008 = assay: Cytotoxicity against african green monkey Vero E6 cells by CCK-8 assay; assay type: toxicity, cell-based; conditions: chlorocebus sabaeus
# [2] = Metabolic stability in human liver microsomes assessed as intrinsic clearance; assay type: ADME, Microsome
# [3] = Plasma protein binding in human assessed as unbound fraction; assay type: ADME, cell-free
# [4] = Kinetic solubility in phosphate buffer solution at pH 7.4; assay type: physicochemical; conditions: read-out: Kinetic_solubility
# [5] = Metabolic stability in human liver microsomes assessed as half life; assay type: ADME, Microsome
# Cathepsin D = Cathepsin D (Homo sapiens, UniProt P07339); assay: Inhibition of human Cathepsin D using fluorogenic substrate by FRET-based assay
# Chain of Cathepsin D (P07339 65-162 limits assumed): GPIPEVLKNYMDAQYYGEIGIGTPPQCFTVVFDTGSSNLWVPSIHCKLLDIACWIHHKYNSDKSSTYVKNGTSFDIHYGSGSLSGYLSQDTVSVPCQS
# Chain of Cathepsin D (P07339 169-412 limits assumed): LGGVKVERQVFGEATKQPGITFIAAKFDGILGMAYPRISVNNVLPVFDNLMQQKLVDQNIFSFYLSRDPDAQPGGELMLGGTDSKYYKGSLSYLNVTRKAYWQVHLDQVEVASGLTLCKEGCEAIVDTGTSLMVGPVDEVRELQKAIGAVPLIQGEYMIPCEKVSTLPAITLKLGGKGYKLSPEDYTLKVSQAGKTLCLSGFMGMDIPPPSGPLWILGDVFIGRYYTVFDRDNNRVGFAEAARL
# Caspase-2 = molecular target: T1, Caspase-2 (Homo sapiens, UniProt P42575); assay: Inhibition of human Caspase 2 using fluorogenic substrate by FRET-based assay
# T1 sequence (P42575 whole entry): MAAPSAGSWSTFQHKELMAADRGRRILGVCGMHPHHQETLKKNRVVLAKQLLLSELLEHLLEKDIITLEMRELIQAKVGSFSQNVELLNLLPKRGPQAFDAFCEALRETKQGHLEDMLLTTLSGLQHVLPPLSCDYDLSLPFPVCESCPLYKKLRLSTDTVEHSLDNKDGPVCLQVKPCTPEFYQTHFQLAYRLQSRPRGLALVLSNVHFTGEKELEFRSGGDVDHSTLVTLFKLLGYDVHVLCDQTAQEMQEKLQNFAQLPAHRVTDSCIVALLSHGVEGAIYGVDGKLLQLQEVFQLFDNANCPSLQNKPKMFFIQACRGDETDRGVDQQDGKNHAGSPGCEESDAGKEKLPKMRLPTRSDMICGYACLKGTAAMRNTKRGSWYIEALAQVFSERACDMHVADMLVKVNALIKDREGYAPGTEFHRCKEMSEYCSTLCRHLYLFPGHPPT
# Procathepsin L = Procathepsin L (Homo sapiens, UniProt P07711); assay: Inhibition of human Cathepsin L using fluorogenic substrate by FRET-based assay
# Chain of Procathepsin L (P07711 whole entry): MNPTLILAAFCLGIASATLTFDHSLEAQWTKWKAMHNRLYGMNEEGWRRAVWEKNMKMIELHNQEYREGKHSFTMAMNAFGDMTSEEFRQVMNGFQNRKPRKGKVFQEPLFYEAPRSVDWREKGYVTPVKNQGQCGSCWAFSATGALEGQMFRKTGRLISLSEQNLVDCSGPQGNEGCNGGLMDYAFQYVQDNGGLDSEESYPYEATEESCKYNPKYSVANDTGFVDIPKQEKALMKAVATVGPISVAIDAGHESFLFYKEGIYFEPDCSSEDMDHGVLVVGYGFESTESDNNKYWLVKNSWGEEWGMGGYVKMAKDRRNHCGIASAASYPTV
# Prothrombin = Prothrombin (Homo sapiens, UniProt P00734); assay: Inhibition of human Thrombin using fluorogenic substrate by FRET-based assay
# Cathepsin B = Cathepsin B (Homo sapiens, UniProt P07858); assay: Inhibition of human Cathepsin B using fluorogenic substrate by FRET-based assay
Compound,inhibition [1],CC50 (Vero C1008),CLH [2],Fu [3],solubility kinetic [4],t1/2 [5],IC50 (Cathepsin D),IC50 (Caspase-2),IC50 (Procathepsin L),IC50 (Prothrombin),IC50 (Cathepsin B)
CC(C)Cc1nc2cc(O)c(O)c(O)c2c(=O)n1-c1ccccc1,Active,> 50 µM,68.34 µL/min/mg,2.61%,156 µM,20.28 min,,,,,
O=c1c2c(O)c(O)c(O)cc2nc(-c2ccccc2)n1-c1ccccc1,Active,> 50 µM,108.68 µL/min/mg,0.7%,179 µM,12.75 min,> 10 µM,> 10 µM,> 10 µM,> 10 µM,> 10 µM
Cc1cc(-n2c(CC(C)C)nc3cc(O)c(O)c(O)c3c2=O)ccc1F,Active,> 50 µM,,3.17%,,,,,,,
O=c1cc(-c2ccccc2)oc2cc(O)c(O)c(O)c12 [BAICALEIN],,> 50 µM,333.05 µL/min/mg,0.93%,112 µM,4.16 min,,,,,
O=c1c2c(O)c(O)c(O)cc2nc(Cc2ccccc2)n1-c1ccccc1,Active,,,,,,,,,,
O=c1c2c(O)c(O)c(O)cc2nc(-c2ccccc2)n1C1CCCC1,Active,,,,,,,,,,
